# Source: patent publication US9695155B2, “Herbicidal substituted pyrimidinyloxy benzene compounds” (E. I. DU PONT DE NEMOURS AND COMPANY, priority 2013, dated 2017)
# How the values were obtained:
# [1] = system: barley, winter; assay: Test C postemergence; format: in vivo, Hordeum vulgare; details: for Plant response rating (0 to 100), Barley: postemergence; for Plant response rating, Barley: Postemergence, scale 0 to 100 (0 no effect, 100 complete control)
# Source text: (§1) Seeds of plant species selected from blackgrass (Alopecurus myosuroides), Italian ryegrass (Lolium multiflorum), wheat, winter (winter wheat, Triticum aestivum), galium (catchweed bedstraw, Galium aparine), corn (Zea mays), large (Lg) crabgrass (Digitaria sanguinalis), giant foxtail (Setaria faberii), johnsongrass (Sorghum halepense), lambsquarters (Chenopodium album), morningglory (Ipomoea coccinea), yellow nutsedge (Cyperus esculentus), pigweed (Amaranthus retroflexus), ragweed (common ragweed, Ambrosia elatior), soybean (Glycine max), barnyardgrass (Echinochloa crus-galli), oilseed rape (Brassica napus), waterhemp (common waterhemp, Amaranthus rudis), kochia (Kochia scoparia), wild oat (Avena fatua), surinam grass (Brachiaria decumbens), foxtail, green (green foxtail, Setaria viridis), goosegrass (Eleusine indica), bromegrass, downy (downy bromegrass, Bromus tectorum), nightshade (eastern black nightshade, Solanum ptycanthum), cocklebur (common cocklebur, Xanthium strumarium), cupgrass, woolly (woolly cupgrass, Eriochloa villosa), bermudagrass (Cynodon dactylon), sunflower, (common oilseed sunflower, Helianthus annuus), Russian thistle (Salsola kali), and velvetleaf (Abutilon theophrasti) were planted into a blend of loam soil and sand and treated preemergence with test chemicals formulated in a non-phytotoxic solvent mixture which included a surfactant.
# (§2) At the same time, plants selected from these crop and weed species and also barley, winter (winter barley, Hordeum vulgare), windgrass (Apera spica-venti), chickweed (common chickweed, Stellaria media), deadnettle (henbit deadnettle, Lamium amplexicaule), and canarygrass (littleseed canarygrass, Phalaris minor) were planted in pots containing Redi-Earth® planting medium (Scotts Company, 14111 Scottslawn Road, Marysville, Ohio 43041) comprising spaghnum peat moss, vermiculite, wetting agent and starter nutrients and treated with postemergence applications of test chemicals formulated in the same manner. Plants ranged in height from 2 to 18 cm (1- to 4-leaf stage) for postemergence treatments. Treated plants and controls were maintained in a greenhouse for 13 to 15 days, after which time all species were compared to controls and visually evaluated. Plant response ratings, summarized in Table C, are based on a scale of 0 to 100 where 0 is no effect and 100 is complete control. A dash (-) response means no test result.
# [2] = system: cupgrass, woolly; assay: Test C postemergence; format: in vivo, Eriochloa villosa; details: for Plant response rating (0 to 100), Cupgrass, Woolly: postemergence; for Plant response rating, Cupgrass, Woolly: Postemergence, scale 0 to 100 (0 no effect, 100 complete control)
# Source text: as §1, §2
# [3] = system: goosegrass; assay: Test C postemergence; format: in vivo, Eleusine indica; details: for Plant response rating (0 to 100), Goosegrass: postemergence; for Plant response rating, Goosegrass: Postemergence, scale 0 to 100 (0 no effect, 100 complete control)
# Source text: as §1, §2
# [4] = system: foxtail, green; assay: Test C postemergence; format: in vivo, Setaria viridis; details: for Plant response rating (0 to 100), Foxtail, Green: postemergence; for Plant response rating, Foxtail, Green: Postemergence, scale 0 to 100 (0 no effect, 100 complete control)
# Source text: as §1, §2
# [5] = system: bromegrass, downy; assay: Test C postemergence; format: in vivo, Bromus tectorum; details: for Plant response rating (0 to 100), Bromegrass, Downy: postemergence; for Plant response rating, Bromegrass, Downy: Postemergence, scale 0 to 100 (0 no effect, 100 complete control)
# Source text: as §1, §2
# [6] = system: Russian thistle; assay: Test D postemergence; format: in vivo, Salsola kali
# Source text: Seeds of plant species selected from bluegrass (annual bluegrass, Poa annua), blackgrass (Alopecurus myosuroides), canarygrass (littleseed canarygrass, Phalaris minor), chickweed (common chickweed, Stellaria media), galium (catchweed bedstraw, Galium aparine), bromegrass, downy (downy bromegrass, Bromus tectorum), field poppy (Papaver rhoeas), field violet (Viola arvensis), green foxtail (Setaria viridis), deadnettle (henbit deadnettle, Lamium amplexicaule), Italian ryegrass (Lolium multiflorum), kochia (Kochia scoparia), lambsquarters (Chenopodium album), oilseed rape (Brassica napus), pigweed (Amaranthus retroflexus), chamomile (scentless chamomile, Matricaria inodora), Russian thistle (Salsola kali), speedwell (bird's-eye speedwell, Veronica persica), spring barley (Hordeum vulgare), spring wheat (Triticum aestivum), wild buckwheat (Polygonum convolvulus), wild mustard (Sinapis arvensis), wild oat (Avena fatua), wild radish (Raphanus raphanistrum), windgrass (Apera spica-venti), winter barley (Hordeum vulgare), and winter wheat (Triticum aestivum) were planted into a silt loam soil and treated preemergence with test chemicals formulated in a non-phytotoxic solvent mixture which included a surfactant.
# At the same time, these species were planted in pots containing Redi-Earth® planting medium (Scotts Company, 14111 Scottslawn Road, Marysville, Ohio 43041) comprising spaghnum peat moss, vermiculite, wetting agent and starter nutrients and treated with postemergence applications of the test chemicals formulated in the same manner. Plants ranged in height from 2 to 18 cm (1- to 4-leaf stage). Treated plants and controls were maintained in a controlled growth environment for 7 to 21 days after which time all species were compared to controls and visually evaluated. Plant response ratings, summarized in Table D, are based on a scale of 0 to 100 where 0 is no effect and 100 is complete control. A dash (-) response means no test result.
# [7] = system: horseweed; assay: Test E postemergence; format: in vivo, Conyza canadensis
# Source text: Seeds of plant species selected from corn (Zea mays), soybean (Glycine max), velvetleaf (Abutilon theophrasti), lambsquarters (Chenopodium album), wild poinsettia (Euphorbia heterophylla), palmer pigweed (Amaranthus palmeri), waterhemp (common waterhemp, Amaranthus rudis), surinam grass (Brachiaria decumbens), large (Lg) crabgrass (Digitaria sanguinalis), Brazilian crabgrass (Digitaria horizontalis), fall panicum (Panicum dichotomiflorum), giant foxtail (Setaria faberii), green foxtail (Setaria viridis), goosegrass (Eleusine indica), johnsongrass (Sorghum halepense), ragweed (common ragweed, Ambrosia elatior), barnyardgrass (Echinochloa crus-galli), sandbur (southern sandbur, Cenchrus echinatus), arrowleaf sida (Sida rhombifolia), Italian ryegrass (Lolium multiflorum), dayflower (Virginia (VA) dayflower, Commelina virginica), field bindweed (Convolvulus arvensis), morningglory (Ipomoea coccinea), nightshade (eastern black nightshade, Solanum ptycanthum), kochia (Kochia scoparia), yellow nutsedge (Cyperus esculentus), cocklebur (common cocklebur, Xanthium strumarium), smartweed (ladysthumb smartweed, and hairy beggarticks (Bidens pilosa), were planted into a silt loam soil and treated preemergence with test chemicals formulated in a non-phytotoxic solvent mixture which included a surfactant.
# At the same time, plants from these crop and weed species and also horseweed (Canada horseweed, Conyza canadensis), waterhemp_RES1, (ALS & Triazine resistant common waterhemp, Amaranthus rudis), and waterhemp_RES2, (ALS & HPPD resistant common waterhemp, Amaranthus rudis) were planted in pots containing Redi-Earth® planting medium (Scotts Company, 14111 Scottslawn Road, Marysville, Ohio 43041) comprising spaghnum peat moss, vermiculite, wetting agent and starter nutrients were treated with postemergence applications of test chemicals formulated in the same manner. Plants ranged in height from 2 to 18 cm for postemergence treatments (1- to 4-leaf stage). Treated plants and controls were maintained in a greenhouse for 14 to 21 days, after which time all species were compared to controls and visually evaluated. Plant response ratings, summarized in Table E, are based on a scale of 0 to 100 where 0 is no effect and 100 is complete control. A dash (-) response means no test result.
# [8] = 31 g ai/ha, scale 0 to 100 (0 no effect, 100 complete control)
# [9] = 62 g ai/ha, scale 0 to 100 (0 no effect, 100 complete control)
# [10] = 125 g ai/ha, scale 0 to 100 (0 no effect, 100 complete control)
# [11] = Postemergence, 31 g ai/ha, scale 0 to 100
# [12] = Postemergence, 62 g ai/ha, scale 0 to 100
# [13] = Postemergence, 125 g ai/ha, scale 0 to 100
# [14] = postemergence, 16 g ai/ha, scale 0 to 100, 0 no effect, 100 complete control
smiles,measurement,setting,value
"Clc1cnn(-c2ccccc2Oc2ncc(Br)cn2)c1 [Compound 5, 5-bromo-2-[2-(4-chloro-1H-pyrazol-1-yl)phenoxy]pyrimidine]","Plant response rating (0 to 100), Barley",[1]; 125 g ai/ha,5
same,"Plant response rating (0 to 100), Barley",[1]; 250 g ai/ha,10
same,"Plant response rating, Barley","[1]; 31 g ai/ha, 13 to 15 days",0
same,"Plant response rating, Barley",[1]; 62 g ai/ha,0
same,"Plant response rating (0 to 100), Cupgrass, Woolly",[2]; 125 g ai/ha,10
same,"Plant response rating (0 to 100), Cupgrass, Woolly",[2]; 250 g ai/ha,30
same,"Plant response rating, Cupgrass, Woolly","[2]; 31 g ai/ha, 13 to 15 days",0
same,"Plant response rating, Cupgrass, Woolly",[2]; 62 g ai/ha,10
same,"Plant response rating (0 to 100), Goosegrass",[3]; 125 g ai/ha,10
same,"Plant response rating (0 to 100), Goosegrass",[3]; 250 g ai/ha,15
same,"Plant response rating, Goosegrass","[3]; 31 g ai/ha, 13 to 15 days",0
same,"Plant response rating, Goosegrass",[3]; 62 g ai/ha,5
same,"Plant response rating (0 to 100), Foxtail, Green",[4]; 125 g ai/ha,40
same,"Plant response rating (0 to 100), Foxtail, Green",[4]; 250 g ai/ha,70
same,"Plant response rating, Foxtail, Green","[4]; 31 g ai/ha, 13 to 15 days",0
same,"Plant response rating, Foxtail, Green",[4]; 62 g ai/ha,40
same,"Plant response rating (0 to 100), Bromegrass, Downy",[5]; 125 g ai/ha,5
same,"Plant response rating (0 to 100), Bromegrass, Downy",[5]; 250 g ai/ha,10
same,"Plant response rating, Bromegrass, Downy","[5]; 31 g ai/ha, 13 to 15 days",5
same,"Plant response rating, Bromegrass, Downy",[5]; 62 g ai/ha,5
FCc1cccc(Oc2ncc(Cl)cn2)c1-n1cc(I)cn1 [Compound 245],"Plant response rating, Russian Thistle","[6]; 16 g ai/ha, scale 0-100",55
same,"Plant response rating, Russian Thistle",[6]; [8],75
same,"Plant response rating, Russian Thistle",[6]; [9],70
same,"Plant response rating, Russian Thistle",[6]; [10],80
"N#Cc1cccc(Oc2ncc(F)cn2)c1-n1cc(C(F)(F)F)cn1 [Compound 79, 3-[(5-fluoro-2-pyrimidinyl)oxy]-2-[4-(trifluoromethyl)-1H-pyrazol-1-yl]benzonitrile]","Plant response rating, Horseweed",[7]; [11],0
same,"Plant response rating, Horseweed",[7]; [12],20
same,"Plant response rating, Horseweed",[7]; [13],30
same,"Plant response rating, Horseweed",[7]; [14],0
Clc1cnc(Oc2cccc(Cl)c2-n2cc(I)cn2)nc1 [Compound 181],"Plant response rating, Horseweed",[7]; [11],0
same,"Plant response rating, Horseweed",[7]; [12],5
same,"Plant response rating, Horseweed",[7]; [13],5
same,"Plant response rating, Horseweed",[7]; [14],0
"Fc1cccc(Oc2ncc(Cl)cn2)c1-n1cc(C(F)F)nn1 [Compound 141, 5-chloro-2-[2-[4-(difluoromethyl)-1H-1,2,3-triazol-1-yl]-3-fluorophenoxy]pyrimidine]","Plant response rating, Russian Thistle","[6]; 16 g ai/ha, scale 0-100",40
same,"Plant response rating, Russian Thistle",[6]; [8],40
same,"Plant response rating, Russian Thistle",[6]; [9],85
same,"Plant response rating, Russian Thistle",[6]; [10],95
